Results: patent publication US20240246918A1, “COMPOUNDS AND COMPOSITIONS AS EIF4E INHIBITORS AND THE USES THEREOF” (Ribometrix, Inc., priority 2022, published 2024)
Where two headings read alike, the source gives them in different places.

Experiments:
[1] = biological target: T1, human eIF4E protein (Homo sapiens, UniProt P06730); test: Biochemical competitive binding assay (TR-FRET competition, EDA-m7GDP-ATTO-647N probe); details: read-out: hEIF4E TR-FRET IC50
T1 construct: purchased Novus NBP-45314
Outline: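 IC50 values come from 4-parameter fits of the normalized 665/620 nm TR-FRET ratio. Compound was first incubated 15 min with 4 nM recombinant His-eIF4E bound to 2.5 nM Eu-anti-His antibody, then 15 min with 5 nM m7GDP-ATTO-647N tracer, in pH 7.5 HEPES buffer with 100 mM KCl, Tween-20 and BSA.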

[2] = system: cap-dependent translation in Flp-In-293 reporter cells; test: Cellular cap-dependent translation inhibition assay (dual luciferase assay, DLA; Fluc/Rluc ratio, 24 hours); type: cell-based
[3] = system: COLO 205 colorectal tumor cells; test: Tumor cell viability inhibition assay (CellTiter-Glo 2.0, 72 hours); type: cell-based; details: COLO 205 cell viability
Outline: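 IC50 derived by 4-parameter fitting after normalizing luminescence to DMSO and max-inhibition wells. Compounds tested as 11 concentrations in 4-fold steps on COLO 205 cells seeded at 1500 per well in RPMI-1640/10% FBS; ATP content measured with CellTiter-Glo 2.0 after 72 h.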

[4] = dual luciferase assay, Flp-In-293 reporter cells, 24 hours, Fluc/Rluc ratio, read-out: DLA 205 IC50
[5] = Homo sapiens, Flp-In-293, 24 h, dual luciferase assay, Flp-In-293 reporter cells, 24 hours, Fluc/Rluc ratio, read-out: DLA 205 IC50
[6] = Homo sapiens, Flp-In-293, 24 h, read-out: DLA 205 IC50, dual luciferase assay, Flp-In-293 reporter cells, 24 hours, Fluc/Rluc ratio

T1 sequence (P06730 whole entry): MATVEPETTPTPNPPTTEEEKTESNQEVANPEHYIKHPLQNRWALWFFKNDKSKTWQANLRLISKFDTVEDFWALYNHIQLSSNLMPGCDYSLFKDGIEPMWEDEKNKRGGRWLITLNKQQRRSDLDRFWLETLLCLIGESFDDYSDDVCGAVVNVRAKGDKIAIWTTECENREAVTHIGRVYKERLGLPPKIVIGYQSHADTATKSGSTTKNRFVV

SMILES | IC50 [1] [nM] | IC50 [2, 4] [nM] | IC50 [3] [µM] | IC50 [2, 5] [nM] | IC50 ([3]; Homo sapiens, COLO 205, 72 h) [µM] | IC50 [2, 6] [nM] | IC50 ([3]; Homo sapiens) [µM]
Cc1nc2c(c(=O)n1CCOc1ccc(Cl)cc1-c1cccc(C(=O)O)c1)CC(N(C)C)CC2 (single isomer, unassigned) [Compound 25] | 100 to 500 | 1000 to 5000 | > 20 | – | – | – | –
Cc1cc(-c2cc(Cl)ccc2OCCn2c(C)nc3c(c2=O)CC(N(C)C2CC2)CC3)c2scc(C(=O)NS(=O)(=O)c3ccncc3)c2n1 (single isomer, unassigned) [Compound 284] | < 100 | – | – | 1000 to 5000 | 5 to 20 | – | –
Cc1cc(-c2cc(Cl)ccc2OCCn2c(C)nc3c(c2=O)CC(N(C)CCOC(F)(F)F)CC3)c2scc(C(=O)NS(C)(=O)=O)c2n1 (stereo not drawn) [Compound 55] | < 100 | – | – | < 1000 | < 5 | – | –
Cc1cc(-c2cc(Cl)ccc2OCCn2c(C)nc3c(c2=O)CC(N(C)C)CC3)c2ccc(C(=O)NS(C)(=O)=O)n2n1 (stereo not drawn) [Compound 59, 4-[5-chloranyl-2-[2-[6-[di(methyl)amino]-2-methyl-4-oxidanylidene-5,6,7,8-tetrahydroquinazolin-3-yl]ethoxy]phenyl]-2-methyl-N-methylsulfonyl-pyrrolo[1,2-b]pyridazine-7-carboxamide] | < 100 | – | – | < 1000 | < 5 | – | –
Cc1cc(-c2cc(Cl)ccc2OCCn2c(C)nc3c(c2=O)CC(N2CC(F)(F)C2)CC3)c2scc(C(=O)O)c2n1 (stereo not drawn) [Compound 49] | 100 to 500 | – | – | 1000 to 5000 | 5 to 20 | – | –
Cc1cc(-c2cc(Cl)ccc2OCCn2c(C)nc3c(c2=O)CC(N2CC(N4CCOCC4)C2)CC3)c2scc(C(=O)O)c2n1 (stereo not drawn) [Compound 17] | < 100 | – | – | 1000 to 5000 | 5 to 20 | – | –
Cc1cc(-c2cc(Cl)ccc2OCCn2c(C)nc3c(c2=O)CC(N2CCC(F)(F)CC2)CC3)c2scc(C(=O)NS(C)(=O)=O)c2n1 (single isomer, unassigned) [Compound 254] | < 100 | < 1000 | < 5 | – | – | – | –
Cc1cc(-c2cc(Cl)ccc2OCCn2c(C)nc3c(c2=O)C[C@@H](N2CCC[C@@H](F)C2)CC3)c2scc(C(=O)O)c2n1 (single isomer, unassigned) [Compound 324] | < 100 | – | – | < 1000 | < 5 | – | –
COC1CN(C2CCc3nc(C)n(CCOc4ccc(Cl)cc4-c4cc(C)nc5c(C(=O)O)csc45)c(=O)c3C2)C1 (stereo not drawn) [Compound 28] | < 100 | – | – | < 1000 | < 5 | – | –
Cc1cc(-c2cc(Cl)ccc2OCCn2c(C)nc3c(c2=O)CC(N2CCC2)CC3)c2scc(C(=O)O)c2n1 (stereo not drawn) [Compound 8] | < 100 | – | – | – | – | < 1000 | 5 to 20
Cc1cc(-c2cc(Cl)ccc2OCCn2c(C)nc3c(c2=O)CC(N(C)c2ccncc2)CC3)c2scc(C(=O)O)c2n1 (stereo not drawn) [Compound 47, 7-[5-chloranyl-2-[2-[2-methyl-6-[methyl(4-pyridyl)amino]-4-oxidanylidene-5,6,7,8-tetrahydroquinazolin-3-yl]ethoxy]phenyl]-5-methyl-thieno[3,2-b]pyridine-3-carboxylic acid; 2,2,2-tris(fluorenyl)acetic acid] | < 100 | – | – | > 5000 | > 20 | – | –
Cc1cc(-c2cc(Cl)ccc2OCCn2c(C)nc3c(c2=O)CC(N(C)Cc2ccncc2)CC3)c2scc(C(=O)O)c2n1 (single isomer, unassigned) [Compound 354] | < 100 | < 1000 | < 5 | – | – | – | –
Cc1cc(-c2cc(Cl)ccc2OCCn2c(C)nc3c(c2=O)CC(N(C)C2(C(F)(F)F)CC2)CC3)c2scc(C(=O)O)c2n1 (stereo not drawn) [Compound 265] | 100 to 500 | – | – | 1000 to 5000 | > 20 | – | –
Cc1nc2c(c(=O)n1CC#Cc1ccc(Cl)cc1-c1ccnc3c(C(=O)O)csc13)CC(N1CCCCC1)CC2 (stereo not drawn) [Compound 357] | < 100 | – | – | < 1000 | < 5 | – | –
Cc1cc(-c2cc(Cl)ccc2OCCn2c(C)nc3c(c2=O)CC(N(C)C2CCC(F)(F)C2)CC3)c2scc(C(=O)O)c2n1 (single isomer, unassigned) [Compound 337] | < 100 | – | – | < 1000 | < 5 | – | –
CNC1CCc2nc(C)n(CCOc3ccc(Cl)cc3-c3cccc(C(=O)O)c3)c(=O)c2C1 (stereo not drawn) [Compound 2] | < 100 | – | – | – | – | > 5000 | < 5
Cc1cc(-c2cc(Cl)ccc2OCCn2c(C)nc3c(c2=O)CC(N(C)C2CC2)CC3)c2c(n1)c(C(=O)O)cn2C (stereo not drawn) [Compound 277] | 500 to 5000 | – | – | > 5000 | > 20 | – | –
Cc1nc2c(c(=O)n1CC#Cc1ccc(Cl)cc1-c1ccnc3c(C(=O)NS(C)(=O)=O)csc13)CC(N1CC(F)(F)C1)CC2 (single isomer, unassigned) [Compound 331] | 100 to 500 | 1000 to 5000 | – | – | 5 to 20 | – | –
Cc1cc(-c2cc(Cl)ccc2OCCn2c(C)nc3c(c2=O)CC(N(CC(F)(F)F)C2CC2)CC3)c2scc(C(=O)O)c2n1 (single isomer, unassigned) [Compound 319] | 100 to 500 | – | – | 1000 to 5000 | 5 to 20 | – | –
Cc1cc(-c2cc(Cl)ccc2OCCn2c(C)nc3c(c2=O)CC(N(C2CC2)C2CC2)CC3)c2scc(C(=O)NS(C)(=O)=O)c2n1 (single isomer, unassigned) [Compound 291] | < 100 | – | – | < 1000 | < 5 | – | –
Cc1cc(-c2cc(Cl)ccc2OCCn2c(C)nc3c(c2=O)CC(N(C)C)CC3)c2ccc(C(=O)O)n2n1 (stereo not drawn) [Compound 36, 4-[5-chloranyl-2-[2-[6-[di(methyl)amino]-2-methyl-4-oxidanylidene-5,6,7,8-tetrahydroquinazolin-3-yl]ethoxy]phenyl]-2-methyl-pyrrolo[1,2-b]pyridazine-7-carboxylic acid] | < 100 | – | – | > 5000 | > 20 | – | –
Cc1cc(-c2cc(Cl)ccc2OCCn2c(C)nc3c(c2=O)CC(N(C)C2CC2)CC3)c2scc(C(=O)NS(C)(=O)=O)c2n1 (single isomer, unassigned) [Compound 302] | < 100 | – | – | < 1000 | < 5 | – | –
Cc1cc(-c2cc(Cl)ccc2OCCn2c(C)nc3c(c2=O)CC(N(C)C2CN(CC(F)(F)F)C2)CC3)c2scc(C(=O)O)c2n1 (stereo not drawn) [Compound 64, 7-[5-chloranyl-2-[2-[2-methyl-6-[methyl-[1-[2,2,2-tris(fluorenyl)ethyl]azetidin-3-yl]amino]-4-oxidanylidene-5,6,7,8-tetrahydroquinazolin-3-yl]ethoxy]phenyl]-5-methyl-thieno[3,2-b]pyridine-3-carboxylic acid; 2,2,2-tris(fluorenyl)acetic acid] | < 100 | – | – | < 1000 | < 5 | – | –
Cc1nc2c(c(=O)n1CC#Cc1ccc(Cl)cc1-c1ccnc3c(C(=O)O)csc13)CC(N(C)Cc1ccncc1)CC2 (stereo not drawn) [Compound 351] | < 100 | – | – | < 1000 | < 5 | – | –
Cc1cc(-c2cc(Cl)ccc2OCCn2c(C)nc3c(c2=O)CC(N2CCCC(F)(F)C2)CC3)c2scc(C(=O)NS(C)(=O)=O)c2n1 (stereo not drawn) [Compound 81] | < 100 | – | – | < 1000 | < 5 | – | –
Cc1cc(-c2cc(Cl)ccc2OCCn2c(C)nc3c(c2=O)CC(N2CCN(C)C(=O)C2)CC3)c2scc(C(=O)O)c2n1 (stereo not drawn) [Compound 95] | < 100 | – | – | > 5000 | > 20 | – | –
Cc1cc(-c2cc(Cl)ccc2OCCn2c(C)nc3c(c2=O)C[C@@H](N2CCC[C@H](F)C2)CC3)c2scc(C(=O)O)c2n1 (single isomer, unassigned) [Compound 282] | < 100 | – | – | < 1000 | < 5 | – | –
